Like-named read-outs stand apart in the source and are kept apart here.
What was measured:
[1] = molecular target: T1, wild type HCV NS3/4A 1b protease enzyme (Hepatitis C virus genotype 1b, UniProt P26663); assay: biochemical; format: biochemical
T1 construct: 10× stocks of NS3/4A protease enzyme from Bioenza (Mountain View, Calif.); purchased Bioenza (Mountain View, Calif.)
Protocol: (§1) HCV Protease FRET Assay for Wild Type and Mutated NS3/4A 1b Enzymes (IC50)
(§2) Protease reactions were started with the addition of 45 μL of the FRET substrate and monitored for 120 minutes at λex487/λem514 through Quad^4 monochromoters in a Synergy^4 plate reader from BioTek (Winooski, Vt.). At the conclusion of each assay, progress curves from each well were examined for linear reaction kinetics and fit statistics (R^2, absolute sum of squares).
(§3) The compound numbers correspond to the compound numbers in Table 3.

[2] = molecular target: T2, D168A mutant of the HCV NS3/4A 1b protease enzyme (Hepatitis C virus genotype 1b, UniProt P26663, D1194A); assay: HCV Protease FRET Assay (IC50), D168A mutant; format: biochemical
T2 construct: 10× stocks of NS3/4A protease enzyme from Bioenza (Mountain View, Calif.); purchased Bioenza (Mountain View, Calif.)
Protocol: as §1, §2, §3

[3] = read-out: Inhibition, WT, WT enzyme, FRET assay
[4] = read-out: Inhibition, HCV D168A, D168A enzyme, FRET assay

C=C[C@@H]1C[C@]1(NC(=O)[C@@H]1C[C@@H](Oc2cc(-c3ccccc3)nc3cc(OC)ccc23)CN1C(=O)CNC(=O)[C@@H](Cl)c1ccccc1)C(=O)NS(=O)(=O)c1ccccc1 (stereo in doubt) [Compound I-45, (2S,4R)-1-(2-((S,R)-2-chloro-2-phenylacetamido)acetyl)-4-(7-methoxy-2-phenylquinolin-4-yloxy)-N-((1R,2S)-1-(phenylsulfonylcarbamoyl)-2-vinylcyclopropyl)pyrrolidine-2-carboxamide]
IC50 [1, 3]: 100 to 1000 nM | IC50 [2, 4]: 1000 to 10000 nM

C=C[C@@H]1C[C@]1(NC(=O)[C@@H]1C[C@@H](Oc2cc(-c3ccccc3)nc3cc(OC)ccc23)CN1C(=O)[C@H](CCNC(=O)C(C)Cl)NC(=O)OC(C)(C)C)C(=O)NS(=O)(=O)c1ccccc1 (stereo partly drawn) [Compound I-1, (2S)-2-[[(1,1-dimethylethoxy)carbonyl]amino]-4-(R,S-chloropropionyl)amino-butanoyl-(4R)-4-[(7-methoxy-2-phenyl-4-quinolinyl)oxy]-L-prolyl-1-amino-2-ethenyl-N-(phenylsulfonyl)-(1R,2S)-cyclopropanecarboxamide]
IC50 [1, 3]: < 10 nM | IC50 [2, 4]: 1000 to 10000 nM

C=C[C@@H]1C[C@]1(NC(=O)[C@@H]1C[C@@H](Oc2cc(-c3ccccc3)nc3cc(OC)ccc23)CN1C(=O)[C@H](CC1CO1)NC(=O)OC(C)(C)C)C(=O)NS(=O)(=O)c1ccccc1 (stereo partly drawn) [Compound I-6, (2S)-2-[[(1,1-dimethylethoxy)carbonyl]amino]-3-oxiranepropanoyl-(4R)-4-[(7-methoxy-2-phenyl-4-quinolinyl)oxy]-L-prolyl-1-amino-2-ethenyl-N-(phenylsulfonyl)-(1R,2S)-cyclopropanecarboxamide]
IC50 [1, 3]: < 10 nM | IC50 [2, 4]: 100 to 1000 nM

C=C[C@@H]1C[C@]1(NC(=O)[C@@H]1C[C@@H](Oc2cc(-c3ccccc3)nc3cc(OC)ccc23)CN1C(=O)[C@H](CNC(=O)C1(C#N)CC1)NC(=O)OC(C)(C)C)C(=O)NS(=O)(=O)c1ccccc1 [Compound I-11, N-[(1,1-dimethylethoxy)carbonyl]-3-[(1-cyano-cyclopropylcarboxyl)amino]-L-alanyl-(4R)-4-[(7-methoxy-2-phenyl-4-quinolinyl)oxy]-L-prolyl-1-amino-2-ethenyl-N-(phenylsulfonyl)-(1R,2S)-cyclopropanecarboxamide]
IC50 [1, 3]: < 10 nM | IC50 [2, 4]: 100 to 1000 nM

C=C[C@@H]1C[C@]1(NC(=O)[C@@H]1C[C@@H](Oc2cc(-c3ccccc3)nc3cc(OC)ccc23)CN1C(=O)[C@H](CNC(=O)[C@@H](C)Cl)NC(=O)OC(C)(C)C)C(=O)NS(=O)(=O)c1ccccc1 [Compound I-13, N-[(1,1-dimethylethoxy)carbonyl]-3-[R-(chloropropionyl)amino]-L-alanyl-(4R)-4-[(7-methoxy-2-phenyl-4-quinolinyl)oxy]-L-prolyl-1-amino-2-ethenyl-N-(phenylsulfonyl)-(1R,2S)-cyclopropanecarboxamide]
IC50 [1, 3]: < 10 nM | IC50 [2, 4]: 100 to 1000 nM

C=C[C@@H]1C[C@]1(NC(=O)[C@@H]1C[C@@H](Oc2cc(-c3ccccc3)nc3cc(OC)ccc23)CN1C(=O)[C@H](CNC(=O)[C@H](C)Cl)NC(=O)OC(C)(C)C)C(=O)NS(=O)(=O)c1ccccc1 [Compound I-21, tert-butyl(S)-3-((S)-2-chloropropanamido)-1-((2S,4R)-4-(7-methoxy-2-phenylquinolin-4-yloxy)-2-((1R,2S)-1-(phenylsulfonylcarbamoyl)-2-vinylcyclopropylcarbamoyl)pyrrolidin-1-yl)-1-oxopropan-2-ylcarbamate]
IC50 [1, 3]: < 10 nM | IC50 [2, 4]: 100 to 1000 nM

C=C[C@@H]1C[C@]1(NC(=O)[C@@H]1C[C@@H](Oc2cc(-c3ccccc3)nc3cc(OC)ccc23)CN1C(=O)C1(NC(=O)OC(C)(C)C)CCNCC1)C(=O)NS(=O)(=O)c1ccccc1 [Compound I-24, tert-butyl-4-((2S,4R)-4-(7-methoxy-2-phenylquinolin-4-yloxy)-2-((1R,2S)-1-(phenylsulfonylcarbamoyl)-2-vinylcyclopropylcarbamoyl)pyrrolidine-1-carbonyl)piperidin-4-ylcarbamate]
IC50 [1, 3]: 100 to 1000 nM | IC50 [2, 4]: 1000 to 10000 nM

C=CC(=O)NC[C@H](NC(=O)CCCCCNC(=O)CCCC[C@@H]1SC[C@@H]2NC(=O)N[C@@H]21)C(=O)N1C[C@H](Oc2cc(-c3ccccc3)nc3cc(OC)ccc23)C[C@H]1C(=O)N[C@]1(C(=O)NS(=O)(=O)c2ccccc2)C[C@H]1C=C [Compound I-31, (2S,4R)-1-((S)-3-acrylamido-2-(6-(5-((3aS,4S,6aR)-2-oxohexahydro-1H-thieno[3,4-d]imidazol-4-yl)pentanamido)hexanamido)propanoyl)-4-(7-methoxy-2-phenylquinolin-4-yloxy)-N-((1R,2S)-1-(phenylsulfonylcarbamoyl)-2-vinylcyclopropyl)pyrrolidine-2-carboxamide]
IC50 [1, 3]: < 10 nM | IC50 [2, 4]: 10 to 100 nM

C=CC(=O)N[C@@H](C)C(=O)N1C[C@H](Oc2cc(-c3ccccc3)nc3cc(OC)ccc23)C[C@H]1C(=O)N[C@]1(C(=O)NS(=O)(=O)c2ccccc2)C[C@H]1C=C [Compound I-34, (2S,4R)-1-((S)-2-acrylamidopropanoyl)-4-(7-methoxy-2-phenylquinolin-4-yloxy)-N-((1R,2S)-1-(phenylsulfonylcarbamoyl)-2-vinylcyclopropyl)pyrrolidine-2-carboxamide]
IC50 [1, 3]: 10 to 100 nM | IC50 [2, 4]: 1000 to 10000 nM

C=CC(=O)N(C)CC(=O)N1C[C@H](Oc2cc(-c3ccccc3)nc3cc(OC)ccc23)C[C@H]1C(=O)N[C@]1(C(=O)NS(=O)(=O)C2CC2)C[C@H]1C=C [Compound I-37, (2S,4R)—N-((1R,2S)-1-(cyclopropylsulfonylcarbamoyl)-2-vinylcyclopropyl)-4-(7-methoxy-2-phenylquinolin-4-yloxy)-1-(2-(N-methylacrylamido)acetyl)pyrrolidine-2-carboxamide]
IC50 [1, 3]: 10 to 100 nM | IC50 [2, 4]: 1000 to 10000 nM

C=C[C@@H]1C[C@]1(NC(=O)[C@@H]1C[C@@H](Oc2cc(-c3ccccc3)nc3cc(OC)ccc23)CN1C(=O)CNC(=O)OC(C)(C)C)C(=O)NS(=O)(=O)C1CC1 [Compound I-38, tert-butyl-2-((2S,4R)-2-((1R,2S)-1-(cyclopropylsulfonylcarbamoyl)-2-vinylcyclopropylcarbamoyl)-4-(7-methoxy-2-phenylquinolin-4-yloxy)pyrrolidin-1-yl)-2-oxoethylcarbamate]
IC50 [1, 3]: < 10 nM | IC50 [2, 4]: 100 to 1000 nM

C=CC(=O)OC(C)(C)[C@H](NC(=O)OC(C)(C)C)C(=O)N1CC(Oc2cc(-c3ccccc3)nc3cc(OC)ccc23)C[C@H]1C(=O)N[C@]1(C(=O)NS(=O)(=O)C2CC2)C[C@H]1C=C (some centres unmarked) [Compound I-40]
IC50 [1, 3]: 10 to 100 nM | IC50 [2, 4]: < 10 nM

C=C[C@@H]1C[C@]1(NC(=O)[C@@H]1C[C@@H](Oc2cc(-c3ccccc3)nc3cc(OC)ccc23)CN1C(=O)CNC(=O)C#CC)C(=O)NS(=O)(=O)c1ccccc1 [Compound I-43, (2S,4R)-1-(2-but-2-ynamidoacetyl)-4-(7-methoxy-2-phenylquinolin-4-yloxy)-N-((1R,2S)-1-(phenylsulfonylcarbamoyl)-2-vinylcyclopropyl)pyrrolidine-2-carboxamide]
IC50 [1, 3]: 100 to 1000 nM | IC50 [2, 4]: 1000 to 10000 nM

C=C[C@@H]1C[C@]1(NC(=O)[C@@H]1C[C@@H](Oc2cc(-c3ccccc3)nc3cc(OC)ccc23)CN1C(=O)CNC(=O)C(=C)C)C(=O)NS(=O)(=O)c1ccccc1 [Compound I-44, (2S,4R)-1-(2-methacrylamidoacetyl)-4-(7-methoxy-2-phenylquinolin-4-yloxy)-N-((1R,2S)-1-(phenylsulfonylcarbamoyl)-2-vinylcyclopropyl)pyrrolidine-2-carboxamide]
IC50 [1, 3]: 10 to 100 nM | IC50 [2, 4]: 1000 to 10000 nM

C=CC(=O)N1C[C@H](Oc2cc(-c3ccccc3)nc3cc(OC)ccc23)C[C@H]1C(=O)N[C@]1(C(=O)NS(=O)(=O)C2CC2)C[C@H]1C=C [Compound I-49, (2S,4R)-1-acryloyl-N-((1R,2S)-1-(cyclopropylsulfonylcarbamoyl)-2-vinylcyclopropyl)-4-(7-methoxy-2-phenylquinolin-4-yloxy)pyrrolidine-2-carboxamide]
IC50 [1, 3]: 10 to 100 nM | IC50 [2, 4]: 100 to 1000 nM

C=C[C@@H]1C[C@]1(NC(=O)[C@@H]1C[C@@H](Oc2cc(-c3ccccc3)nc3cc(OC)ccc23)CN1C(=O)CNC(=O)CC)C(=O)NS(=O)(=O)c1ccccc1 [I^R-27, (2S,4R)-4-(7-methoxy-2-phenylquinolin-4-yloxy)-N-((1R,2S)-1-(phenylsulfonylcarbamoyl)-2-vinylcyclopropyl)-1-(2-propionamidoacetyl)pyrrolidine-2-carboxamide]
IC50 [1]: 100 to 1000 nM | IC50 [2]: 1000 to 10000 nM

— patent US8309685B2 (Celgene Avilomics Research, Inc., priority 2007, dated 2012)
